According to article PMC6155332, “Antimalarials with Benzothiophene Moieties as Aminoquinoline Partners” (Molecules : A Journal of Synthetic Chemistry and Natural …, 2017):
Values joined by “and” are separate entries in the source; they are usually repeats but may differ in a detail not shown here. Equal entries are not always repeated. Where two headings read alike, the source gives them in different places.

Experiments:
[1] = test system: P. falciparum D6 (CQ susceptible (CQS) strain); design: method as in PMID 26640981, PMID 25801154; settings: previously reported compounds; ref [27],[28]; cited from earlier work
healthy mice = assay: Host toxicity study in healthy mice; format: in vivo; settings: 160 mg/kg/day × 3 days; for Host toxicity (toxic / non-toxic): healthy mice, orally; for Mice survived in host toxicity study: groups of 5 healthy mice
Procedure: In a separate host toxicity study, groups of five healthy mice were administered 160 mg/kg/day × 3 days of the investigational compounds and individually monitored for behavior and appearance two times a day for 31 days. No toxicity was defined as survival past day 31 with no overt clinical manifestations of toxicity (changes in behavior and appearance).

[2] = test system: P. falciparum W2 (CQ resistant (CQR) strain); design: method as in PMID 26640981; settings: previously reported compounds; ref [27]; cited from earlier work
[3] = test system: HepG2 (hepatocellular carcinoma) cell line; design: method as in PMID 26640981; settings: previously reported compounds; ref [27]; cited from earlier work
[4] = test system: P. falciparum D6 (CQ susceptible (CQS) strain); assay: Malaria SYBR Green Fluorescence Assay, D6 strain; format: cell-based; settings: Plasmodium falciparum; CQ susceptible African D6 clone; read-out: In Vitro Antimalarial Activity (P. falciparum, IC50, nM) D6
[5] = test system: P. falciparum W2 (CQ resistant (CQR) strain); assay: microbe, parasite or virus in culture; format: cell-based, Plasmodium falciparum
[6] = test system: P. falciparum TM91C235 (Thailand, multidrug-resistant (MDR) strain); assay: Malaria SYBR Green Fluorescence Assay, TM91C235 strain; format: cell-based; settings: Plasmodium falciparum, read-out: In Vitro Antimalarial Activity (P. falciparum, IC50, nM) C235
[7] = test system: HepG2 (hepatocellular carcinoma) cell line; assay: Compound toxicity in HepG2 cell line; format: cell-based, human
Procedure: To investigate possible toxicity issues, the synthesized compounds were evaluated in vitro against a human hepatoma cell line (HepG2).
Synthesized aminoquinolines were screened in vitro against P. falciparum strains: CQ and MFQ susceptible strain D6 (clone of Sierra Leone/UNC isolate), CQ resistant but MFQ susceptible strain W2 (clone of Indochina isolate), and CQ and MFQ resistant strain TM91C235 (clone of South East Asian isolate) using the Malaria SYBR Green Fluorescence Assay. Full method details are given in Supplementary Materials I. Assessment of compound toxicity in a HepG2 (hepatocellular carcinoma) cell line followed the protocol described in Ref. [40].

P. berghei (ANKA) = assay: Modified Thompson test, P. berghei mouse efficacy; format: in vivo, Plasmodium berghei; settings: for Mean Survival Time (MST, Days) / Mice Alive on Day 31 / Mice Dead/Day Died: infected mice; for Parasitemia D18: day 18; for Parasitemia D21: day 21; for Parasitemia D25: day 25; for Parasitemia D28: day 28; for Parasitemia D11: day 11
Procedure: In a separate host toxicity study, benzothiophene 25 was subjected to in vivo toxicity evaluation. […]
The P. berghei (ANKA) mouse efficacy tests were conducted using a modified version of the Thompson test. Groups of five mice were inoculated intraperitoneally with erythrocytes infected with P. berghei on day 0. Drugs were suspended in 0.5% hydroxyethylcellulose-0.1% Tween 80 and administered orally once a day beginning on day 3 post infection. […] Cure was defined as survival (with no parasitemia) until day 31 post-treatment. Parasitemia was determined by thin-blood Giemsa-stained smears prepared from mice tail blood of each animal on days 0, 3, 6, 10, 13, 17, 20, 24, 27, and 31 (postinfection). The slides were examined under a light microscope.

β-hematin formation = assay: Inhibition of β-hematin formation (BHIA assay); format: biochemical; settings: molar equivalent of compound, relative to hemin, that inhibits β-hematin formation by 50%
From the text: [33] The inhibition of β-hematin formation is expressed as the molar equivalent of compound, relative to hemin, that inhibits β-hematin formation by 50% and determined by slightly modified BHIA assay introduced by ParapiniS.BasilicoN.PasiniE.EganT.J.OlliaroP.TaramelliD.MontiD.Standardization of the physicochemical parameters to assess in vitro the beta-hematin inhibitory activity of antimalarial drugsExp. Parasitol.200096249256

P. berghei DNA = assay: qPCR of blood and liver of treated mice for Plasmodium 18S rRNA gene; format: in vivo, Plasmodium berghei; settings: mice treated 160 mg/kg/day × 3 days, alive past day 31
From the text: Briefly, genomic DNA was extracted from the blood and liver of experimental animals using the DNeasy blood and tissue kit (Qiagen, Hilden, Germany) according to the manufacturer’s instructions. The primers and corresponding TaqMan (Applied BioSystems. Foster City, CA, USA) probe amplify and detect a highly conserved region of the 18S rRNA gene of the genus Plasmodium. Pure P. berghei gDNA samples were used as positive controls.
Genomic DNA was extracted from the blood and liver of experimental animals using the DNeasy blood and tissue kit (Qiagen, Hilden, Germany) according to the manufacturer’s instructions. Briefly, mice alive past day 31 with complete parasite clearance were sacrificed. Next, between 300 and 500 μL of blood was removed after heart puncture and the organs were removed, rinsed with dPBS and homogenized. The liver was homogenized using mechanical disruption and then subjected to proteinase K digestion. Approximately 100 μL of sample was used per each spin column for gDNA extraction.
Briefly, the primers and corresponding TaqMan probe amplify and detect a highly conserved region of the 18S rRNA gene of the genus Plasmodium. The primer and probe sequences were as follows: forward primer Plasmo 1: 5-[…] TCAGA-3; reverse primer Plasmo 2: 5-[…] TCATAA-3; TaqMan probe Plasprobe: 5-FAM-[…] GACTAG-TAMRA-3. […]

[8] = 160 mg/kg/day p.o., days 3–5 postinfection
[9] = 20 mg/kg/day p.o., days 3–6 postinfection
[10] = 40 mg/kg/day p.o., days 3–6 postinfection
[11] = 80 mg/kg/day p.o., days 3–6 postinfection

Fc1ccc2scc(CNCCCCNc3ccnc4cc(Cl)ccc34)c2c1 [Compound 2]
IC50 [1]: 0.01 µM

N#Cc1ccc2scc(CNCCCNc3ccnc4cc(Cl)ccc34)c2c1 [Compound 3]
IC50 [1]: 0.005 µM

N#Cc1ccc(-c2ccc(CNCCCNc3ccnc4cc(Cl)ccc34)s2)cc1 [Compound 4]
IC50 [1]: 0.002 µM

Clc1ccc2c(NCCCNCc3csc4ccccc34)ccnc2c1 [Compound 53]
Host toxicity (toxic / non-toxic) (healthy mice): toxic
IC50 [1]: 0.007 µM
IC50 [2]: 0.024 µM
SI(HepG2/D6) [3]: 1111

N#Cc1ccc(-c2ccc(-c3ccc(CNCCCCCCCCNc4ccnc5cc(Cl)ccc45)cc3)s2)cc1 [Compound 42]
IC50 [4]: 55 nM
RI W2/D6 (resistance index) ([5]; IC50 W2 / IC50 D6): 0.2
IC50 ([5]; Plasmodium falciparum, W2, read-out: In Vitro Antimalarial Activity (P. falciparum, IC50, nM) W2): 12 nM
IC50 [6]: 30 nM
IC50 ([7]; Homo sapiens, HepG2, hepatocellular carcinoma cells): 2.09 µM
SI HepG2/D6 (selectivity index) ([7]; IC50 HepG2 / IC50 D6): 38
Parasitemia D24 (P. berghei (ANKA); 160 mg/kg/day p.o. days 3–5, day 24): 75%
Mean Survival Time (MST, Days) (P. berghei (ANKA); [8]): 18.6 days
Mice Alive on Day 31 (P. berghei (ANKA); [8]): 0/5
Mice Dead/Day Died (P. berghei (ANKA); 160 mg/kg/day p.o., days 3–5 postinfection, 160 mg/kg/day): 1/9 and 1/13 and 1/20 and 1/23 and 1/28
Mice survived in host toxicity study (healthy mice): 5
Host toxicity (toxic / non-toxic) (healthy mice): non-toxic

Clc1ccc2c(NCCCCNCc3csc4ccccc34)ccnc2c1 [Compound 1]
Parasitemia D18 (P. berghei (ANKA); 20 mg/kg/day p.o. days 3–6): 6%
Parasitemia D21 (P. berghei (ANKA); 20 mg/kg/day p.o. days 3–6): 27%
Parasitemia D25 (P. berghei (ANKA); 20 mg/kg/day p.o. days 3–6): 63%
Parasitemia D28 (P. berghei (ANKA); 20 mg/kg/day p.o. days 3–6): 66%
Cure (4 days therapy) (P. berghei (ANKA); 20 mg/kg/day): no cure
Parasitemia D7 (P. berghei (ANKA); 40 mg/kg/day p.o. days 3–6, day 7, positive mice): 5 mice negative
Parasitemia D11 (P. berghei (ANKA); 40 mg/kg/day p.o. days 3–6): no detectable parasitemia and 5 mice negative
Parasitemia D18 (P. berghei (ANKA); 40 mg/kg/day p.o. days 3–6): 2.2%
Parasitemia D21 (P. berghei (ANKA); 40 mg/kg/day p.o. days 3–6): 7.3%
Parasitemia D25 (P. berghei (ANKA); 40 mg/kg/day p.o. days 3–6): 37%
Parasitemia D28 (P. berghei (ANKA); 40 mg/kg/day p.o. days 3–6): 53%
Parasitemia D7 (P. berghei (ANKA); 80 mg/kg/day p.o. days 3–6, day 7, positive mice): 4 mice negative
Parasitemia D11 (P. berghei (ANKA); 80 mg/kg/day p.o. days 3–6): 4 mice negative
Parasitemia D18 (P. berghei (ANKA); 80 mg/kg/day p.o. days 3–6): 2.3%
Parasitemia D7 (P. berghei (ANKA); 160 mg/kg/day p.o. days 3–5, day 7): cleared all parasites
Parasitemia D31 (P. berghei (ANKA); 160 mg/kg/day p.o. days 3–5, day 31 (end of study)): parasite negative
Parasitemia D7–D31 (P. berghei (ANKA); 160 mg/kg/day p.o. days 3–5, days 7–31): 5 mice negative
Parasite clearance in dose response test (P. berghei (ANKA); 80, 40 and 20 mg/kg/day p.o. for 4 days, starting day 3 postinfection): did not clear the parasites
Cure (4 days therapy) (P. berghei (ANKA); 80 and 40 mg/kg/day, clearance with recrudescence on D11-14): no cure
Mice cured (modified Thompson test, 3 days therapy) (P. berghei (ANKA); P. berghei infected mice, 160 mg/kg/day × 3 days p.o.): 5/5
Mean Survival Time (MST, Days) (P. berghei (ANKA); [9]): 16.8 days
Mice Alive on Day 31 (P. berghei (ANKA); [9]): 0/5
Mice Dead/Day Died (P. berghei (ANKA); 20 mg/kg/day p.o., days 3–6 postinfection, 20 mg/kg/day): 2/11 and 1/14 and 1/18 and 1/30
Mean Survival Time (MST, Days) (P. berghei (ANKA); [10]): 19.4 days
Mice Alive on Day 31 (P. berghei (ANKA); [10]): 0/5
Mice Dead/Day Died (P. berghei (ANKA); 40 mg/kg/day p.o., days 3–6 postinfection, 40 mg/kg/day): 1/30 and 1/15 and 1/16 and 2/18
Mean Survival Time (MST, Days) (P. berghei (ANKA); [11]): 18.2 days
Mice Alive on Day 31 (P. berghei (ANKA); [11]): 0/4
Mice Dead/Day Died (P. berghei (ANKA); 80 mg/kg/day p.o., days 3–6 postinfection, 80 mg/kg/day): 3/18 and 1/19
Mean Survival Time (MST, Days) (P. berghei (ANKA); [8]): >31 days
Mice Alive on Day 31 (P. berghei (ANKA); [8]): 5/5
Mice survived in host toxicity study (healthy mice): 5/5
IC50 of inhibition of β-hematin formation (β-hematin formation): 0.34 molar equivalent
P. berghei DNA in blood and tissue samples (qPCR) (P. berghei DNA): negative
IC50 [1]: 0.008 µM
IC50 [2]: 0.031 µM
SI(HepG2/D6) [3]: 282

Cc1ccc(-c2ccc(CNCCNc3ccnc4cc(Cl)ccc34)s2)cc1 [Compound 6]
IC50 [1]: 0.005 µM

COc1ccc(-c2ccc(CNCCCNc3ccnc4cc(Cl)ccc34)s2)cc1 [Compound 5]
IC50 [1]: 0.007 µM
